Results as given in patent US20210347758A1 (Tesaro, Inc., priority 2018, published 2021).
Values after ≈ are worked out from the molar mass of the structure shown. Where two headings read alike, the source gives them in different places.

Experiments:
physchem = settings: for solubility at 24 h: 37 °C, thermodynamic from solid
Procedure: For each sample, 30 mg of the freebase was weighed into vials (in triplicate) and 1 mL of water or buffer was added. The following buffers (50 mM in each case) used were: • pH 1 25 mL KCl solution (1.49 g dissolved in 100 mL water) and 42.5 mL HCl solution (1.66 mL made up to 100 mL with water) were added together and made up to 100 mL with water; • pH 4.5 anhydrous sodium acetate (1.07 g) was dissolved in water (about 150 mL) before adding 5.9 mL acetic acid solution (11.6 mL glacial acetic acid made up to 100 mL with water). The resulting solution was made up to 500 mL with water; and • pH 6.8 25 mL of KH2PO4 solution (2.72 g dissolved in about 80 mL water and made up to 100 mL with water) and 11.2 mL of NaOH solution (800 mg of sodium hydroxide was dissolved and diluted to 100 mL with water) were added together and made up to 100 mL with water.
(§1) The resulting samples were shaken at 37° C. for 1 hour. […] All samples were then shaken at 37° C. for 23 hours. […] Any solids which were isolated by filtration were assessed by XRPD to determine whether the form of the material had changed.

[1] = solids shaken in water or pH 1 / 4.5 / 6.8 buffer at 37° C.
Procedure: as §1

[2] = up to 1 mL
Procedure: Between each addition, the mixture was checked for dissolution and, if no dissolution was apparent, the mixture was heated to about 50° C. and checked again. After 300 μL of solvent had been added, 100 μL aliquots were added sequentially. This procedure was continued until dissolution was observed or until 1 mL of solvent had been added. If no dissolution occurred, the solids were isolated by filtration and an XRPD pattern was collected. If dissolution occurred, the solvent was evaporated and an XRPD pattern was collected on any solid which remained.

[3] = for Hygroscopicity: GVS, double cycle
Procedure: Typically, approximately 10-20 mg of sample was placed into a mesh vapour sorption balance pan and loaded into an IGASorp Moisture Sorption Analyser balance by Hiden Analytical. The sample was subjected to a ramping profile from 40-90% relative humidity (RH) at 10% increments, maintaining the sample at each step until a stable weight had been achieved (98% step completion, minimum step length 30 minutes, maximum step length 60 minutes) at 25° C. After completion of the sorption cycle, the sample was dried using the same procedure to 0% RH, and finally taken back to the starting point of 40% RH. Two cycles were performed. The weight change during the sorption/desorption cycles were plotted, allowing for the hygroscopic nature of the sample to be determined.

[4] = system: poly (ADP-ribose) polymerase (“PARP”) proteins; settings: selective for PARP-1 and PARP-2; Thorsell et al.; cited from earlier work
[5] = system: BRCA1- and BRCA2-deficient cell lines; settings: in vitro; cited from earlier work
[6] = system: human cancers with deficiencies in BRCA1 and BRCA2 or with homologous recombination deficiency (HRD); settings: mutated or wild-type BRCA1/2; cited from earlier work
[7] = pH 1 buffer (50 mM), shaken at 37° C. for 24 hours in total, average of triplicate
[8] = water, shaken at 37° C. for 24 hours in total, average of triplicate

Solubility (physchem; [7])	solubility at 24 h (physchem; pH 4.5 sodium acetate/acetic acid buffer, pH 4.5, aqueous buffer, pH 4.5 buffer (50 mM), shaken at 37° C. for 24 hours in total, average of triplicate)	solubility at 24 h (physchem; pH 6.8 KH2PO4/NaOH buffer, pH 6.8, aqueous buffer, pH 6.8 buffer (50 mM), shaken at 37° C. for 24 hours in total, average of triplicate)	Solubility (physchem; water, Solubility in water, summary statement, conditions not stated)	Solubility (physchem; [8])	Dissolution in 2-propanol ([2]; 2-propanol, heated to about 50° C.)	Dissolution in ethanol ([2]; ethanol, with heating to about 40° C.)	Solubility (physchem; pH 4.5 buffer (50 mM), shaken at 37° C. for 24 hours in total, average of triplicate)	Solubility (physchem; pH 6.8 buffer (50 mM), shaken at 37° C. for 24 hours in total, average of triplicate)	Hygroscopicity ([3]; listed as Niraparib freebase Form I)	Hygroscopicity ([3]; listed as niraparib freebase Form I)	GVS mass increase ([3]; up to 90% RH, 25° C.)	Solid form after filtration (XRPD) ([1]; listed as crystalline samples)	Compound	Solid form after filtration (XRPD) ([1]; listed as amorphous samples)	PARP inhibition [4]	Inhibition of proliferation [5]	Tumor growth [6]
11.8 mg/mL (≈ 36.8 mM)	13400 µg/mL (≈ 41.8 mM)	600 µg/mL (≈ 1.87 mM)	~1 mg/mL (≈ 3.12 mM)	0.8 mg/mL (≈ 2.5 mM)	partially soluble	Complete dissolution	–	–	–	–	–	–	NC(=O)c1cccc2cn(-c3ccc([C@@H]4CCCNC4)cc3)nc12 [Amorphous Form, 2-{4-[(3S)-piperidin-3-yl]phenyl}-2H-indazole-7-carboxamide]	a new crystalline form was obtained (Form V)	–	–	–
30.9 mg/mL (≈ 96.4 mM)	–	–	–	<0.1 mg/mL	–	–	11.8 mg/mL (≈ 36.8 mM)	0.7 mg/mL (≈ 2.18 mM)	non-hygroscopic	non-hydroscopic	about 0.7%	unchanged	NC(=O)c1cccc2cn(-c3ccc([C@@H]4CCCNC4)cc3)nc12 [Crystalline Form I, 2-{4-[(3S)-piperidin-3-yl]phenyl}-2H-indazole-7-carboxamide]	–	–	–	–
–	–	–	–	–	–	–	–	–	–	–	–	–	NC(=O)c1cccc2cn(-c3ccc([C@@H]4CCCNC4)cc3)nc12 [Niraparib, 2-{4-[(3S)-piperidin-3-yl]phenyl}-2H-indazole-7-carboxamide]	–	potent inhibitor	inhibits the proliferation	decreases tumor growth
